Drawing on patent US7262192B2, “Substituted pyrazolo[4,3-d]pyrimidines and their use as PDE-5 inhibitors” (Pfizer Inc., priority 2003, dated 2007), this text covers IC50 for 13 compounds.

As a reminder, the IC50 is the point on the concentration scale where inhibition reaches its midpoint. Read a high IC50 as weaker potency.

The assay deals with cGMP-specific PDE-5 (UniProt O76074). The assay can be described thus: PDE-5 inhibition, batch method or scintillation proximity assay. It counts as biochemical, human. The following applies: activity against PDE-5; representative preferred compounds. An excerpt:
The compounds of the invention are inhibitors of cyclic guanylate monophosphate (cGMP)-specific phosphodiesterase type 5 (PDE-5 inhibitors).
The required PDE enzymes can be isolated from a variety of sources, including human corpus cavernosum, human and rabbit platelets, human cardiac ventricle, human skeletal muscle and bovine retina, essentially by a modification of the method of Thompson, W J et al.; Biochemistry 18(23), 5228-5237, 1979, as described by Ballard S A et al.; J. Urology 159(6), 2164-2171, 1998. In particular, cGMP-specific PDE-5 and cGMP-inhibited cAMP PDE-3 can be obtained from human corpus cavernosum tissue, human platelets or rabbit platelets; cGMP-stimulated PDE-2 was obtained from human corpus cavernosum; calcium/calmodulin (Ca/CAM)-dependent PDE-1 from human cardiac ventricle; cAMP-specific PDE-4 from human skeletal muscle; and photoreceptor PDE-6 from bovine retina. Phosphodiesterases 7-11 can be generated from full length human recombinant clones transfected into SF9 cells.
Assays can be performed either using a modification of the “batch” method of Thompson W J and Appleman M M; Biochemistry 10(2),311-316, 1971, essentially as described by Ballard S A et al.; J. Urology 159(6), 2164-2171, 1998, or using a scintillation proximity assay for the direct detection of [^3H]-labelled AMP/GMP using a modification of the protocol described by Amersham plc under product code TRKQ7090/7100. In summary, for the scintillation proximity assay the effect of PDE inhibitors was investigated by assaying a fixed amount of enzyme in the presence of varying inhibitor concentrations and low substrate, (cGMP or cAMP in a 3:1 ratio unlabelled to [^3H]-labeled at a concentration of ˜⅓ Km or less) such that IC50≈Ki. The final assay volume was made up to 100 μL with assay buffer [20 mM Tris-HCl pH 7.4, 5 mM MgCl2, 1 mg/mL bovine serum albumin]. Reactions were initiated with enzyme, incubated for 30-60 min at 30° C. to give <30% substrate turnover and terminated with 50 μL silicate SPA beads (containing 3 mM of the respective unlabelled cyclic nucleotide for PDEs 9 and 11).
(In general: SPA uses beads or plates that emit light when radiolabelled molecules are held near them.)
Compound `CCOCCn1nc(COC)c2nc(N(C)C)nc(Nc3cc(C)ccn3)c21` [Example 185, 1-(2-Ethoxyethyl)-3-methoxymethyl-N^5,N^5-dimethyl-N^7-(4-methylpyridin-2-yl)-1H-pyrazolo[4,3-d]pyrimidine-5,7-diamine] returned an IC50 of 1320 pM. Regarding `CCOCCn1nc(CC)c2nc(N3CCNC(C)C3)nc(Nc3ccncn3)c21` (stereo not shown) [Example 15], the IC50 turned out to be 110 pM. Compound `CCOCc1nn(CCOCC(F)(F)F)c2c(Nc3cccc(C)n3)nc(N3CCNC(C)C3)nc12` (stereo not shown) [Example 255] displayed an IC50 of 1430 pM. Compound `CCOCCn1nc(C)c2nc(N3CCNC(C)C3)nc(Nc3ccncn3)c21` (stereo not shown) [Example 11] came in with an IC50 of 310 pM. Compared with the last compound, the IC50 is about 4.6-fold lower.

On to `CCOCCn1nc(COC)c2nc(N3CCN[C@H](C)C3)nc(Nc3cccc(C)n3)c21` [Example 211], for which the IC50 came to 2700 pM. The compound `CCOCCn1nc(CC)c2nc(N(C)C3CCN(C)CC3)nc(Nc3ccncn3)c21` [Example 2] had an IC50 of 500 pM. This IC50 lies about 5.4-fold lower than the previous one. As to `CCOCCn1nc(CO)c2nc(N(C)CC)nc(Nc3cc(C)ccn3)c21` [Example 181, [1-(2-Ethoxyethyl)-5-(N-ethyl-N-methylamino)-7-(4-methylpyridin-2-ylamino)-1H-pyrazolo[4,3-d]pyrimidin-3-yl]methanol], inhibition was half-maximal at 410 pM (IC50). Compound `CCOCc1nn(CCOCC(F)(F)F)c2c(Nc3cc(C)ccn3)nc(N3CCNC(C)C3)nc12` (stereo not shown) [Example 256] showed an IC50 of 3890 pM. The compound `CCOCCn1nc(C)c2nc(N(C)[C@H]3CCN(C)C3)nc(Nc3ccncn3)c21` [Example 191, 1-(2-Ethoxyethyl)-N^5,3-dimethyl-N^5-[(3S)-1-methylpyrrolidin-3-yl]-N^7-pyrimidin-4-yl-1H-pyrazolo[4,3-d]pyrimidine-5,7-diamine] displayed an IC50 of 2400 pM. In the case of `CCOCCn1nc(CC)c2nc(N3CC(C)NCC3C)nc(Nc3ccncn3)c21` (stereo not shown) [Example 141], the IC50 turned out to be 150 pM.

As to `CCCOCCn1nc(C)c2nc(N3CCNC(C)C3)nc(Nc3ccncn3)c21` (stereo not shown) [Example 23], the IC50 was 470 pM. Under `CCOCCn1nc(C)c2nc(N3CC(C)NCC3C)nc(Nc3ccncn3)c21` (stereo not shown) [Example 138] stands 330 pM. As for `CCOCCn1nc(CC)c2nc(N(C)C3CCN(C)C3)nc(Nc3cc(C)ccn3)c21` (stereo not shown) [Example 162], the IC50 amounted to 240 pM.
